Results reported in patent US10786582B2, “Gd(III)-dithiolane gold nanoparticle conjugates” (Northwestern University, priority 2015, dated 2020).

Assay: r1 relaxivity of dt-Gd(III) nanoconjugates, Bruker minispec 60 MHz
Assay type: physicochemical
Conditions: per Gd(III); 60 MHz (1.41 T), 37° C., water plus 0.01% tween 20
Protocol: A stock solution of backfilled dt-Gd(III) SNA conjugates was made (700 uL). This stock was serially diluted four times for a total of five solutions. Solutions were heated to 37° C. and two hundred μL of each concentration was placed into a Bruker minispec mq60 NMR spectrometer (60 MHz) for measurement of T1 relaxation time. Data were collected using an inversion recovery pulse sequence using 4 averages, a 15 s repetition time and 10 data points. The remaining volumes of each solution were utilized for ICP analysis of [Gd(III)]. The inverse of the longitudinal relaxation time (1/T1, s−1) was plotted versus the Gd(III) concentration (mM). […] Relaxivities of DNA-Gd@spheres, Gd(III)-DNA and complex 5 were collected by the analogous procedure (Table 3, FIG. 7).

2,2′2″(10(3-(((1-(5-(1,2-dithiolan-3-yl)pentyl)-1,2,3-triazol-4-yl)methyl)amino)-3-oxopropyl)-1,4,7,10-tetraazacyclododecyl-gadolinium(III) complex [dt-Gd(III)]
r1 relaxivity ionic: 4.9 mM⁻¹ s⁻¹
